In the supplement of paper PMC10307832:

Legend:
Experiment in all cases: relative viability (nuclei count vs DMSO), 5 days (fraction); higher = more cells survive
IDH-C35 + Bortezomib = compound: Cc1ccccc1C(C(=O)NC1CCCCC1)N(C(=O)Cn1ccnc1C)c1cccc(F)c1 [IDH-C35] + CC(C)C[C@H](NC(=O)[C@H](Cc1ccccc1)NC(=O)c1cnccn1)B(O)O [Bortezomib] (partner 0.002 µM)
How it was run: (§1)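 Lung cancer cell lines were seeded in 1536-well plates and dosed by pin tool the next day, with either a single drug or a fixed anchor-drug dose combined with five library-drug doses (not always all listed) spaced in √10 steps. Five days later, one step fixed the cells and stained their nuclei (final 0.05% Triton X-100, 1% formaldehyde, 1 ug/ml Hoechst), and nuclei were counted on 4× images. Relative viability is the nuclei count in treated wells divided by the count in vehicle wells, and each value is the median of duplicate plates.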

[1] = compound: CC1=C(C(=NN1)C)CC2=C(C3=C(S2)N(C(=O)N(C3=O)C)CC(C)C)C(=O)N4C[C@@H](CO4)O + O=C(c1cc(Cc2n[nH]c(=O)c3ccccc23)ccc1F)N1CCN(C(=O)C2CC2)CC1 [Olaparib] (partner 8 µM)
How it was run: as §1

IDH-C35 + Linsitinib = compound: Cc1ccccc1C(C(=O)NC1CCCCC1)N(C(=O)Cn1ccnc1C)c1cccc(F)c1 [IDH-C35] + C[C@]1(O)C[C@@H](c2nc(-c3ccc4ccc(-c5ccccc5)nc4c3)c3c(N)nccn32)C1 [Linsitinib] (partner 1 µM)
How it was run: as §1

[2] = compound: CC1=C(C(=NN1)C)CC2=C(C3=C(S2)N(C(=O)N(C3=O)C)CC(C)C)C(=O)N4C[C@@H](CO4)O + Cc1nc(NC(=O)N2CCC[C@H]2C(N)=O)sc1-c1ccnc(C(C)(C)C(F)(F)F)c1 [Alpelisib] (partner 2 µM)
How it was run: as §1

Cell Line	relative viability (IDH-C35 + Bortezomib; first compound 0.08 µM)	relative viability (IDH-C35 + Bortezomib; first compound 0.253 µM)	relative viability (IDH-C35 + Bortezomib; first compound 0.8 µM)	relative viability (IDH-C35 + Bortezomib; first compound 2.53 µM)	relative viability (IDH-C35 + Bortezomib; first compound 8 µM)	relative viability ([1]; first compound 0.0025 µM)	relative viability ([1]; first compound 0.007906 µM)	relative viability ([1]; first compound 0.025 µM)	relative viability ([1]; first compound 0.07906 µM)	relative viability ([1]; first compound 0.25 µM)	relative viability (IDH-C35 + Linsitinib; first compound 0.08 µM)	relative viability (IDH-C35 + Linsitinib; first compound 0.253 µM)	relative viability (IDH-C35 + Linsitinib; first compound 0.8 µM)	relative viability (IDH-C35 + Linsitinib; first compound 2.53 µM)	relative viability (IDH-C35 + Linsitinib; first compound 8 µM)	relative viability ([2]; first compound 0.0025 µM)	relative viability ([2]; first compound 0.007906 µM)	relative viability ([2]; first compound 0.025 µM)	relative viability ([2]; first compound 0.07906 µM)	relative viability ([2]; first compound 0.25 µM)
LU99A	1.14	1.1	1.1	1.05	1.16	0.224	0.262	0.246	0.193	0.229	0.569	0.536	0.506	0.593	0.6	0.559	0.589	0.581	0.568	0.611
NCI-H1355	1.21	1.15	1.16	1.17	1.05	0.889	0.806	0.783	0.738	0.724	0.896	0.859	0.848	0.773	0.892	0.937	0.887	0.878	0.893	0.74
HCC-78	0.581	0.521	0.587	0.563	0.446	0.826	1	0.92	0.854	0.798	0.54	0.495	0.497	0.382	0.453	0.409	0.343	0.315	0.319	0.299
HCC-15	1.03	0.958	1.01	0.936	0.982	0.721	0.707	0.69	0.697	0.766	0.866	0.828	0.788	0.835	0.764	0.953	0.914	0.901	0.854	0.942
EKVX	1.18	0.995	0.995	1.04	0.993	1.02	0.969	0.892	0.775	0.988	1.05	1.09	0.957	0.988	1.01	0.906	1.07	0.835	0.923	0.734
NCI-H2087	0.846	0.959	0.805	0.863	0.654	0.67	0.661	0.598	0.727	0.701	1.03	0.826	0.744	0.87	0.881	0.952	1.03	1.12	1.31	1.18
NCI-H1437	0.629	0.456	0.451	0.639	0.548	0.624	0.622	0.635	0.643	0.613	0.998	1.14	0.989	1.14	1.03	0.993	1	0.946	0.972	1.06
COR-L23	0.927	0.995	1.01	0.983	0.909	0.404	0.33	0.298	0.328	0.325	0.828	0.896	0.913	0.889	0.886	0.782	0.709	0.59	0.759	0.739
ABC-1	0.391	0.306	0.299	0.339	0.362	0.487	0.519	–	0.485	0.517	0.898	0.856	0.913	0.767	0.746	1.04	1.07	1.14	1.01	0.944
NCI-H838	1.06	0.758	0.668	1.1	1.08	0.741	0.714	0.639	0.65	0.604	1.08	0.959	0.949	1.04	0.943	1.05	1.05	0.989	0.967	0.974
A-427	0.977	1.04	1.01	0.934	0.952	0.762	0.769	0.706	0.729	0.886	1.13	1.17	1.07	1.1	1.18	1.02	1.21	1.08	1.03	1.07
NCI-H1792	0.921	0.906	0.95	0.909	0.983	0.542	0.384	0.356	0.383	0.246	0.522	0.508	0.486	0.555	0.66	0.82	0.624	0.699	0.58	0.555
LCLC-97TM1	0.616	0.691	0.53	–	0.511	0.492	0.519	0.404	0.38	0.414	0.209	0.194	0.179	–	0.193	0.276	0.206	0.257	0.188	0.228
NCI-H1703	0.326	0.346	0.422	0.43	0.261	0.467	0.348	0.422	0.41	0.447	0.821	0.787	0.632	0.778	0.536	0.366	0.211	0.32	0.309	0.299
LCLC-103H	1.09	1.14	1.07	0.98	0.973	0.797	0.735	0.762	0.753	0.773	1.21	1.01	0.98	1.13	1.07	1.06	1	0.959	0.957	0.896
PC-3 [JPC-3]	0.854	0.868	0.849	0.856	0.813	1.19	0.794	1.14	1.07	1.3	0.939	0.985	0.96	0.969	0.936	1.02	1.03	1	1.01	1.06

Cell Line	relative viability (IDH-C35 + Bortezomib; first compound 0.08 µM)	relative viability (IDH-C35 + Bortezomib; first compound 0.253 µM)	relative viability (IDH-C35 + Bortezomib; first compound 0.8 µM)	relative viability (IDH-C35 + Bortezomib; first compound 2.53 µM)	relative viability (IDH-C35 + Bortezomib; first compound 8 µM)	relative viability ([1]; first compound 0.0025 µM)	relative viability ([1]; first compound 0.007906 µM)	relative viability ([1]; first compound 0.025 µM)	relative viability ([1]; first compound 0.07906 µM)	relative viability ([1]; first compound 0.25 µM)	relative viability (IDH-C35 + Linsitinib; first compound 0.08 µM)	relative viability (IDH-C35 + Linsitinib; first compound 0.253 µM)	relative viability (IDH-C35 + Linsitinib; first compound 0.8 µM)	relative viability (IDH-C35 + Linsitinib; first compound 2.53 µM)	relative viability (IDH-C35 + Linsitinib; first compound 8 µM)	relative viability ([2]; first compound 0.0025 µM)	relative viability ([2]; first compound 0.007906 µM)	relative viability ([2]; first compound 0.025 µM)	relative viability ([2]; first compound 0.07906 µM)	relative viability ([2]; first compound 0.25 µM)
BEN	0.897	0.921	0.799	0.881	0.936	0.868	0.709	0.684	0.806	0.712	0.831	0.899	0.813	0.906	0.99	0.976	1.01	0.826	0.858	0.987
NCI-H1666	0.769	0.881	0.914	0.872	0.691	0.751	0.742	0.766	0.769	0.725	0.775	0.79	0.888	0.904	0.941	1.06	1.01	1.02	1.13	0.953
LC-2-ad	1.01	1.03	1.01	1.04	0.935	0.748	0.659	0.702	0.658	0.782	0.867	0.829	0.774	0.875	0.886	0.985	0.85	0.842	0.897	0.921
SK-LU-1	1.34	1.33	1.25	–	1.03	0.439	0.366	0.266	0.332	0.377	0.999	1.03	1.07	1.22	1.1	0.879	0.565	0.537	0.782	0.582
COR-L 105	0.902	0.943	0.752	0.66	0.489	0.604	0.587	0.617	0.771	0.656	1.01	1.24	0.854	1.01	0.836	1.03	0.896	1.12	1.01	0.999
NCI-H1975	0.383	0.376	0.421	0.354	0.315	0.814	0.906	0.839	0.77	0.875	0.854	0.937	0.93	0.92	0.878	0.668	0.538	0.723	0.719	0.745
Calu-6	0.971	1	1.04	1.07	0.955	0.532	0.501	0.557	0.59	0.603	0.993	0.928	0.961	0.932	0.88	1.3	0.898	0.892	0.895	1.09
NCI-H1993	1.07	1.03	1.16	1.19	1.24	0.964	0.957	0.947	0.844	0.912	0.758	0.776	0.817	0.745	0.798	0.69	0.608	0.719	0.615	0.722
RERF-LC-KJ	1.09	1.08	1.1	1.2	1.19	0.958	0.832	1.04	0.926	0.883	0.873	0.861	0.871	0.906	0.904	0.977	0.939	0.92	0.775	0.964
NCI-H23	0.977	0.836	1.07	1.13	0.94	0.39	0.322	0.311	0.339	0.376	0.514	0.541	0.541	0.523	0.505	0.823	0.767	0.666	0.634	0.892
HCC-366	1.07	1.01	1.06	0.987	0.979	0.379	0.473	0.357	0.294	0.371	0.619	0.647	0.553	0.601	0.606	0.489	0.475	0.396	0.54	0.49
EMC-BAC-2	1.01	1.08	1.13	1.09	1.11	0.546	0.464	0.474	0.489	0.527	0.797	0.799	0.798	0.777	0.812	0.809	0.854	0.721	0.691	0.814
NCI-H2405	1	1	0.97	0.972	0.875	0.876	0.806	0.885	0.749	0.875	0.974	0.957	0.928	–	0.907	0.735	0.688	–	0.78	0.669
EPLC-272H	0.906	0.962	1.05	–	0.856	0.69	0.778	0.771	0.844	1.09	1.12	1.31	1.08	–	1.25	0.99	0.943	0.99	0.899	0.829
EBC-1	0.544	0.575	0.493	0.613	0.506	0.738	0.705	0.718	0.836	0.748	1.04	0.949	1.02	0.867	0.852	0.973	0.973	0.765	0.822	0.814
NCI-H1915	0.939	0.977	0.963	0.961	0.995	0.259	0.251	0.266	0.249	0.255	1.13	1.12	1.1	1.07	1.09	1.09	1.11	1.1	1.15	1.07
